Calls of active or inactive are those of the source.
Experiments:
[1] = target: T1, Alkaline phosphatase, tissue-nonspecific isozyme (Homo sapiens, UniProt P05186); test: potency against alkaline phosphatase TNAP – biochemical, luminescent, dose response, SAR follow-up (AID 1056)
T1 sequence (P05186 whole entry): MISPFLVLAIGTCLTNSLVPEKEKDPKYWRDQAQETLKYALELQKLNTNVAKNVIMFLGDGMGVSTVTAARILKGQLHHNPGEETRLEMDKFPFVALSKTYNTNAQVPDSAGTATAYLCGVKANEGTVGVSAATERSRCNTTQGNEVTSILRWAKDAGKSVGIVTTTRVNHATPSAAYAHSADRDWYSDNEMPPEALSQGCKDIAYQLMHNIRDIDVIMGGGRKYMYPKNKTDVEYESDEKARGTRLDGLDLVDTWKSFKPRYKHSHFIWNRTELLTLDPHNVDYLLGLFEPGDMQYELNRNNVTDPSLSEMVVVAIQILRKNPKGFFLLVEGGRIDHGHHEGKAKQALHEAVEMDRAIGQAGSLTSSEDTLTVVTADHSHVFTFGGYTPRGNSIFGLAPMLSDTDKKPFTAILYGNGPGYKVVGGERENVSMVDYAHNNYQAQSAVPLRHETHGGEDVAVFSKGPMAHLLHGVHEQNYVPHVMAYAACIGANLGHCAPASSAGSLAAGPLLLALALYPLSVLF

[2] = target: Glyceraldehyde-3-phosphate dehydrogenase (Homo sapiens, UniProt P04406)
[3] = target: Alkaline phosphatase, placental type (Homo sapiens, UniProt P05187); test: human placental alkaline phosphatase inhibition – biochemical, luminescence, confirmation (AID 1512); type: functional
[4] = target: T2, Protein RecA (Mycobacterium tuberculosis, UniProt P9WHJ3); test: Fluorescence Cell-Free Homogeneous Dose Retest to Identify Inhibitors of RecA-Intein Splicing Activity. [Related pubchem assays (depositor defined):AID2097, AID2223, AID489010, AID492950]; type: functional
T2 sequence (P9WHJ3 whole entry): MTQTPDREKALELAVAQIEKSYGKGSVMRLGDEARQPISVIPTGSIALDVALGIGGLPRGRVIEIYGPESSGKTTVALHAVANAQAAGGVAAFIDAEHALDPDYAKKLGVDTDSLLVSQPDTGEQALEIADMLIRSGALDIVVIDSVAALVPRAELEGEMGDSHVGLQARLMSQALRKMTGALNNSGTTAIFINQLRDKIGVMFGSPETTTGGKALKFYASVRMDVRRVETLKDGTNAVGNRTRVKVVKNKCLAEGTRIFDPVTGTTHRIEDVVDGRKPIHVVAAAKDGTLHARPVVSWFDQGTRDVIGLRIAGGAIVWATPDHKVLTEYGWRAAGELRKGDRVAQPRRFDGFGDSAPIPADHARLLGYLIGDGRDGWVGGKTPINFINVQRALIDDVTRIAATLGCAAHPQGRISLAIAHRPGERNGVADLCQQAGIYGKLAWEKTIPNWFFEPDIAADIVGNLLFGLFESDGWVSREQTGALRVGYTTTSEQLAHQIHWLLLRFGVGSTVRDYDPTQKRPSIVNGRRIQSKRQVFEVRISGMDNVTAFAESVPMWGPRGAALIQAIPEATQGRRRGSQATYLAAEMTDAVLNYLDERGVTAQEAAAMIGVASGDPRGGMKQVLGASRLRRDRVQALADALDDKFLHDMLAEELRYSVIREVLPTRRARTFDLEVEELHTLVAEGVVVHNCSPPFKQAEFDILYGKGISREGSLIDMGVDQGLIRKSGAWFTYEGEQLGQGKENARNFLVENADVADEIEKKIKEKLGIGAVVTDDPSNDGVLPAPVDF

[5] = Counterscreen for antagonists of the orexin 1 receptor (OX1R; HCRTR1): Fluorescence-based cell-based high throughput dose response assay to identify antagonists of the parental CHO cell line. [Related pubchem assays (depositor defined):AID434989, AID435008, AID463079, AID485270, AID492963, AID492964, AID492965, AID493232, AID504699, AID504701]; type: functional
[6] = target: T3, Replicative DNA helicase DnaB (Mycobacterium tuberculosis, UniProt P9WMR3); test: DnaB intein splicing inhibitors, dose response, biochemical, cell-free fluorescence (AID 449749); type: functional
T3 sequence (P9WMR3 whole entry): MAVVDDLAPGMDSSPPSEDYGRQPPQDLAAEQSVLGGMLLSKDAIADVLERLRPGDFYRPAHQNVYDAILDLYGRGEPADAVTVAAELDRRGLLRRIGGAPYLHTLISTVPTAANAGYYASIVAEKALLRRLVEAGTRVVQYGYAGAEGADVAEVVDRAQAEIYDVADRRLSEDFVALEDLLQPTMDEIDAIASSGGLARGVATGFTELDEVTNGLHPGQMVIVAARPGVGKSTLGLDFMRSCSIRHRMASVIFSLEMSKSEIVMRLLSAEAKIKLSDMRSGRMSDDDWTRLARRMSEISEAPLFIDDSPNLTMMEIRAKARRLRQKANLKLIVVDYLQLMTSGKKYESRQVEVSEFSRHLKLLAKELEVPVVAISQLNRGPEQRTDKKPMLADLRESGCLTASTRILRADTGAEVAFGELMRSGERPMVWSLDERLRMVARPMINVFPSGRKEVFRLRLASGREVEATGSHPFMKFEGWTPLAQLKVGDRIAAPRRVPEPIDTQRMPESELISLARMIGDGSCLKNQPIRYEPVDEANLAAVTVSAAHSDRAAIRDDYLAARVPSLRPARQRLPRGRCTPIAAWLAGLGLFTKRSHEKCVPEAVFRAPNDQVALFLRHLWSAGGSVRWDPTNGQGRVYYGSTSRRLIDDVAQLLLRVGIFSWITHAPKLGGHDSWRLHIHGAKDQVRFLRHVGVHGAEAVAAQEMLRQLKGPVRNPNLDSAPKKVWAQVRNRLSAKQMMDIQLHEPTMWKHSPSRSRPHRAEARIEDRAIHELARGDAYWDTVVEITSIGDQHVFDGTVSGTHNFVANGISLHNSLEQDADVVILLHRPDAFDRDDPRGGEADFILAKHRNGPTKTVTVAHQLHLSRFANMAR

[7] = test system: CHO-K1; test: Counterscreen for antagonists of the orexin 1 receptor (OX1R; HCRTR1): Homogeneous time resolved fluorescence (HTRF)-based cell-based dose response assay to identify antagonists of the parental CHO-K1 cell line. [Related pubchem assays (depositor defined):AID434989, AID435008, AID463079, AID485270, AID492963, AID492964, AID492965, AID493232, AID504699, AID504701]; type: functional; details: Cricetulus griseus;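 further: potency for inhibition of ATP-stimulated IP1 production as antagonists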
[8] = target: T4, Orexin/Hypocretin receptor type 1 (Homo sapiens, UniProt O43613); test: Homogeneous Time Resolved Fluorescence (HTRF)-based cell-based high throughput dose response assay for antagonists of the orexin 1 receptor (OX1R; HCRTR1). [Related pubchem assays (depositor defined):AID434989, AID435008, AID463079, AID485270, AID492963, AID492964, AID492965, AID493232, AID504717, AID504718]; type: functional
T4 sequence (O43613 whole entry): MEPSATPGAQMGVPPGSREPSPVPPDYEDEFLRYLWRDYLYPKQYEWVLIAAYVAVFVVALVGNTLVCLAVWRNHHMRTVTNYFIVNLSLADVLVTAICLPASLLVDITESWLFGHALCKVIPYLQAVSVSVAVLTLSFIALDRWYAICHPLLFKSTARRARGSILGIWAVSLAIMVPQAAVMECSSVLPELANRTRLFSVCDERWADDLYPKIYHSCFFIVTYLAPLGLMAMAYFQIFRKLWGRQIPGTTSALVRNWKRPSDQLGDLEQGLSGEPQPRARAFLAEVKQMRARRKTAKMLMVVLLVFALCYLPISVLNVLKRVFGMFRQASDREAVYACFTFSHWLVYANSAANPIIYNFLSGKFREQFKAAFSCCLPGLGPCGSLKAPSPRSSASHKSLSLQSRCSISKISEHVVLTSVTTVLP

[9] = target: T4, Orexin/Hypocretin receptor type 1; test: Fluorescence-based cell-based high throughput dose response assay for antagonists of the orexin 1 receptor (OX1R; HCRTR1). [Related pubchem assays (depositor defined):AID434989, AID435008, AID463079, AID485270, AID492963, AID492964, AID492965, AID493232, AID504717, AID504718]; type: functional
[10] = target: Intestinal-type alkaline phosphatase (Homo sapiens, UniProt P09923); test: human intestinal alkaline phosphatase activators, dose response, biochemical, luminescence, uHTS hits (AID 463120); type: functional
[11] = Intein inhibitors as potential Tuberculosis drugs, a cytotoxicity screen. [Related pubchem assays (depositor defined):AID2221, AID2223, AID434968, AID435010, AID449749, AID449750, AID489010]; type: functional
[12] = target: T5, Heat shock factor protein 1 (Mus musculus, UniProt P38532); test: enhancement of HSF1-driven luciferase signal – cell-based, NIH3T3, luminescence, dose retest, confirmation (AID 435004); type: functional;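 further: stress induced by proteasome inhibitor MG132 added 30 min after compound; luciferase reporter driven by HSF1 response element in NIH3T3 cells; actives raise luminescence as potentiators of the MG132 stress response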
T5 sequence (P38532 whole entry): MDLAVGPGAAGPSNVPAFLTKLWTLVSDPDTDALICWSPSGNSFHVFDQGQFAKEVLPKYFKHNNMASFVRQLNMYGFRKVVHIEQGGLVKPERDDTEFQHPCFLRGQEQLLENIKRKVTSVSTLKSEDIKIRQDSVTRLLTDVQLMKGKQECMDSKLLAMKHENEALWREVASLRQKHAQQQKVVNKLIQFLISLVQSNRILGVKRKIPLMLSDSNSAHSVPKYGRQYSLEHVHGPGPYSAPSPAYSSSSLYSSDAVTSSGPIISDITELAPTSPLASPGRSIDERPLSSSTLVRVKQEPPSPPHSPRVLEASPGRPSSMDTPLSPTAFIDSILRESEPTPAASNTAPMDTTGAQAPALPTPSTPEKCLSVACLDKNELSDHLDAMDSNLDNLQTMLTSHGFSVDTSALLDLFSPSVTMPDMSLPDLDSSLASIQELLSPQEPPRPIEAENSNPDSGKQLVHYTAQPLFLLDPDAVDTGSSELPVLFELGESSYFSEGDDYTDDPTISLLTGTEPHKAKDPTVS

[13] = target: T6, Voltage-gated N-type calcium channel alpha-1B subunit/Amyloid beta A4 precursor protein-binding family A member 1 (Homo sapiens, UniProt Q00975+Q02410); type: protein assay
[14] = fluconazole-exposed Candida albicans growth modulators – fluorescence, retest, confirmation (AID 2467); type: functional, cell-based
[15] = NIH-3T3 fibroblast cytotoxicity, dose response, cytotoxicity control, cell-based, fluorescence, Alamar Blue, secondary assay (AID 2327); type: functional;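 further: NIH-3T3 mouse fibroblasts cultured with fluconazole at 8 µg/mL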
[16] = target: Eukaryotic translation initiation factor 4H (Homo sapiens, UniProt Q15056); test: eIF4H binding inhibition – biochemical, uHTS, fluorescence polarization, translation initiation inhibitor project, primary screen (AID 2012)
[17] = target: T6, Voltage-gated N-type calcium channel alpha-1B subunit/Amyloid beta A4 precursor protein-binding family A member 1; type: protein assay; remark: listed apart in the source
[18] = target: Polyadenylate-binding protein 1 (Homo sapiens, UniProt P11940); test: blockers of PABP interaction with poly(A) – biochemical, fluorescence polarization, […] (AID 2014)
[19] = target: T7, Long-chain-fatty-acid--AMP ligase FadD28 (Mycobacterium tuberculosis, UniProt P9WQ59); test: Fluorescence polarization aasay to screen for inhibitors that compete for the binding of FadD28 to a bisubstrate Measured in Biochemical System Using Plate Reader - 2147-01_Inhibitor_Dose_CherryPick_Activity.; type: functional, Mycobacterium tuberculosis H37Rv
T7 sequence (P9WQ59 whole entry): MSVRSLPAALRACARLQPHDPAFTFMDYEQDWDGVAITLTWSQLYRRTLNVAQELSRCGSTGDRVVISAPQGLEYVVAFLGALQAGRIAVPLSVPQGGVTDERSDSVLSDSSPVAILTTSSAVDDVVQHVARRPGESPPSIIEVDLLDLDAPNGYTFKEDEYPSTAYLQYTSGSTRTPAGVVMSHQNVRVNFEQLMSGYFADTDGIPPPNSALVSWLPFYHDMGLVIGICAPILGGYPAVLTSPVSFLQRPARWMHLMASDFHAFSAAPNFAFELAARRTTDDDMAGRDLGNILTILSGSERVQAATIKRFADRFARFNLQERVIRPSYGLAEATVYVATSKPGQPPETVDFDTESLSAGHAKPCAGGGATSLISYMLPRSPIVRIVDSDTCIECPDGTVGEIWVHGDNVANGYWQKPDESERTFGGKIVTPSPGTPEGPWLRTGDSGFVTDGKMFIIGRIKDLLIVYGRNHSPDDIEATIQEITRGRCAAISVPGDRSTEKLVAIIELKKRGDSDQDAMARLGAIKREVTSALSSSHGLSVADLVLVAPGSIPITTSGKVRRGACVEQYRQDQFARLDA
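Wherever CC50 is given: cells exposed to compound for 72 hours before luminescence readout.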

T6 sequence (Q00975 whole entry): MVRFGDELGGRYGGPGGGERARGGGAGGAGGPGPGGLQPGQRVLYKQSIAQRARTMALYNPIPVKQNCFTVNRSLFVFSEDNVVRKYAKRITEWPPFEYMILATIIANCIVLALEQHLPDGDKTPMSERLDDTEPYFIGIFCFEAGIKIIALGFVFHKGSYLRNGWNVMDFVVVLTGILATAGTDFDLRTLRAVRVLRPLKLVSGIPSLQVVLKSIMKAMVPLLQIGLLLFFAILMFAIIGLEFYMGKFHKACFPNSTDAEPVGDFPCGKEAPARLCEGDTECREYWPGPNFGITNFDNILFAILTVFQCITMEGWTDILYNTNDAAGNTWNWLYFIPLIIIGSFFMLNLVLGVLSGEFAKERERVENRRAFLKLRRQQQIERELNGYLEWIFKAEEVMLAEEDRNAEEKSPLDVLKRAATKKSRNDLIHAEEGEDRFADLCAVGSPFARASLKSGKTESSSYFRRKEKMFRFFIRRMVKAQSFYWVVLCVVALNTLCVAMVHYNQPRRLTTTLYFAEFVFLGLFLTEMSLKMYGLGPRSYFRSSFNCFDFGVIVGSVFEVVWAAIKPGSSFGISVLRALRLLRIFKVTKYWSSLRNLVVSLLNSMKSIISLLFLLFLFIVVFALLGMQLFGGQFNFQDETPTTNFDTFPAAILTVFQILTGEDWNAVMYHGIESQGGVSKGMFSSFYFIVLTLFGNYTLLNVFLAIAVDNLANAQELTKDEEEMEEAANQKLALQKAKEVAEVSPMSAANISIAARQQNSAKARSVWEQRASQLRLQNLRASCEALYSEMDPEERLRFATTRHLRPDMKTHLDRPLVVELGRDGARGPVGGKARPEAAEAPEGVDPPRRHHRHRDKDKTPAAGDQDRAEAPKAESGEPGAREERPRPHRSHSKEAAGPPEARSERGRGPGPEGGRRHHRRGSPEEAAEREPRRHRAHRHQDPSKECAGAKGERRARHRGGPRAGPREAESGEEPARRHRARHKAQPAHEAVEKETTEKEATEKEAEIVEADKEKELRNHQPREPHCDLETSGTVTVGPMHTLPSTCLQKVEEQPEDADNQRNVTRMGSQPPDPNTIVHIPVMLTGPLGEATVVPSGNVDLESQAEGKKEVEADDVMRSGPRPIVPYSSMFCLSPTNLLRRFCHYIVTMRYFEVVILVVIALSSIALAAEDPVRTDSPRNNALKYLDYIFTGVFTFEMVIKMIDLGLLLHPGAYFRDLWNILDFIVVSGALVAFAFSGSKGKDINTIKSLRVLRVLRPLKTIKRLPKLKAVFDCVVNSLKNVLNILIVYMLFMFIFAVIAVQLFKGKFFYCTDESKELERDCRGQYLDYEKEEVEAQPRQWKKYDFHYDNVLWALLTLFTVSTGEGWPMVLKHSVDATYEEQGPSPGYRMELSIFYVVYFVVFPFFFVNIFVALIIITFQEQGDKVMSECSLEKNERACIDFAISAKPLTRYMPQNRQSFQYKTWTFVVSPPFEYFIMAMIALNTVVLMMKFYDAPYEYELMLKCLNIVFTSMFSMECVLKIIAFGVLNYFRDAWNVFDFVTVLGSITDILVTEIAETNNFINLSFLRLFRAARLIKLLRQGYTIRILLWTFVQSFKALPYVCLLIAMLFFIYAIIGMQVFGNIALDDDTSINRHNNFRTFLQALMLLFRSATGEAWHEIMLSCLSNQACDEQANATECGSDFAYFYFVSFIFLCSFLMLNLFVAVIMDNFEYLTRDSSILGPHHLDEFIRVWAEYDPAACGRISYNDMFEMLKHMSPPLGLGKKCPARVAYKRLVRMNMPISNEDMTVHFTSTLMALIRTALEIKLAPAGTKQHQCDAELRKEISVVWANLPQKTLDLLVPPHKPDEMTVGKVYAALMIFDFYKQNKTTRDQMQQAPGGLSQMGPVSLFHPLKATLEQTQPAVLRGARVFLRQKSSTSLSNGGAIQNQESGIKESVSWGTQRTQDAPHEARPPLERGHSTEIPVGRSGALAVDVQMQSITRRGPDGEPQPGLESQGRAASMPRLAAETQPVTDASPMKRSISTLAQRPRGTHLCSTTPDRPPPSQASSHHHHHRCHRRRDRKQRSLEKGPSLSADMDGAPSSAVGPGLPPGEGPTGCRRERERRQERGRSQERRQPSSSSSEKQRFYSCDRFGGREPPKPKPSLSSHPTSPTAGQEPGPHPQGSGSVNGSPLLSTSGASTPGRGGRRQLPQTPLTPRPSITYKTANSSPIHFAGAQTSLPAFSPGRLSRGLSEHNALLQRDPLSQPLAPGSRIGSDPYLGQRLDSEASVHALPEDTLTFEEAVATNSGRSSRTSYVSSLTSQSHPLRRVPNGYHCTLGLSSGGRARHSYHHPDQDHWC
T6 sequence (Q02410 whole entry): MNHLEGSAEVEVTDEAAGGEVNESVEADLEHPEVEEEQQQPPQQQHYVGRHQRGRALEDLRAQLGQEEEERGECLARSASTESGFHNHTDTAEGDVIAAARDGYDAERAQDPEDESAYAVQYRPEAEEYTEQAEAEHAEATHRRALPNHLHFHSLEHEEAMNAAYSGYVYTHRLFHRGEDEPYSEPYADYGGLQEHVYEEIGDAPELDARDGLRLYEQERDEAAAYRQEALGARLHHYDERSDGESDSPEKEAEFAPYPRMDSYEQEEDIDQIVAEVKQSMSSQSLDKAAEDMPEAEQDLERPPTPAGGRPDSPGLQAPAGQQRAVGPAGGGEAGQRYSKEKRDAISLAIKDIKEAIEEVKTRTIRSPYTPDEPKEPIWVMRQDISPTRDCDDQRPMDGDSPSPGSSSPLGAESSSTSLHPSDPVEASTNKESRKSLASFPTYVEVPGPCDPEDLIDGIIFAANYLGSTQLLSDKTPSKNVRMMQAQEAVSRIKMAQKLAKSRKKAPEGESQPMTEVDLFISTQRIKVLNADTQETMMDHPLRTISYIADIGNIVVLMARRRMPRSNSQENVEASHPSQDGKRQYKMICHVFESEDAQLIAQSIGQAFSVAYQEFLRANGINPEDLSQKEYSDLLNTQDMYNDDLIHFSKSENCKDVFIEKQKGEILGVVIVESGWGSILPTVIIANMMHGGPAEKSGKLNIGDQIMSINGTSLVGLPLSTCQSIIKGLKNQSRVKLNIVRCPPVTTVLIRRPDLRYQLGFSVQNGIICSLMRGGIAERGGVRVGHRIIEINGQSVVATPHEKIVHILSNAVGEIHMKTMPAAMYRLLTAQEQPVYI
Sequence of Polyadenylate-binding protein 1 (P11940 whole entry): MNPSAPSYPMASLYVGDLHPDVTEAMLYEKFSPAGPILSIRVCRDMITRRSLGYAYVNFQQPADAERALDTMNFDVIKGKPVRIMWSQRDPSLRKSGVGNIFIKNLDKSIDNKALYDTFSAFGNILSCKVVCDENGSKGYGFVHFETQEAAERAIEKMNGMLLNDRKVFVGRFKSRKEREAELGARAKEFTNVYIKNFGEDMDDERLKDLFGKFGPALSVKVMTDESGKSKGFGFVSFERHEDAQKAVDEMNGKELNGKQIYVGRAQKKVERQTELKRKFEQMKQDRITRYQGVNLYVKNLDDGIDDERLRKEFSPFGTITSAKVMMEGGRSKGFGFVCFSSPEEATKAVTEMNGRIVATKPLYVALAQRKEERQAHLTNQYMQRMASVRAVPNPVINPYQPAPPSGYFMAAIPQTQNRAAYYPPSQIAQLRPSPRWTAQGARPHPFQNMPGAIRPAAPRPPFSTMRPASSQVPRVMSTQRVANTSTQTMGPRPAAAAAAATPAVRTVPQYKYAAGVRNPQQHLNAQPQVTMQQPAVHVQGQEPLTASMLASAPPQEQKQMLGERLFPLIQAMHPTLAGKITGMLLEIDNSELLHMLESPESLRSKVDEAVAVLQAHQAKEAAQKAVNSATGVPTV
Sequence of Glyceraldehyde-3-phosphate dehydrogenase (P04406 whole entry): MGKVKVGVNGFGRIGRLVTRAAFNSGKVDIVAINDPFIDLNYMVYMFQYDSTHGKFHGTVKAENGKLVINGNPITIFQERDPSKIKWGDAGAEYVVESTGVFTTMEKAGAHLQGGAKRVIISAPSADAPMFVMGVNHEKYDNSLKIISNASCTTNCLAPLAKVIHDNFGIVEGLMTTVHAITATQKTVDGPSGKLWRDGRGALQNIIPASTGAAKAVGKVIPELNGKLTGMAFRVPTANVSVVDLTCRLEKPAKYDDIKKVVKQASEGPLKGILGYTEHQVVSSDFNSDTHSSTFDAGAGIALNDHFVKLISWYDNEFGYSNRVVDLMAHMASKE
Sequence of Alkaline phosphatase, placental type (P05187 whole entry): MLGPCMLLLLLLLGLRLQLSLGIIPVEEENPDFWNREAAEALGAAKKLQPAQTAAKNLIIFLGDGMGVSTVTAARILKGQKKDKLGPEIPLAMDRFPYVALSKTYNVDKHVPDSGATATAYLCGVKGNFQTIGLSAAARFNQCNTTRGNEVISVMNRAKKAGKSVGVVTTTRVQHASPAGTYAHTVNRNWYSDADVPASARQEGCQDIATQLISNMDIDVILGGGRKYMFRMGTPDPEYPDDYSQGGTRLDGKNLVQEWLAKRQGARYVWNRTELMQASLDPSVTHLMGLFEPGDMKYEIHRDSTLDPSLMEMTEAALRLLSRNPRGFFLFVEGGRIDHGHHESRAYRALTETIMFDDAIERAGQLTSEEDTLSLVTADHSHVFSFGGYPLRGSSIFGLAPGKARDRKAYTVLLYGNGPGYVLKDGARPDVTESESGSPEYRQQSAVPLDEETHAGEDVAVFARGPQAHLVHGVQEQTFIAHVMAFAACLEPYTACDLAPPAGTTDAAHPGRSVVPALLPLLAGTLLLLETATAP

CC1(C)CC(=O)c2c(n[nH]c2Cc2ccccc2)C1
IC50 [1]: 1.24 µM (active)
IC50 [2]: > 100 µM (not active)
IC50 [3]: > 100 µM (inactive)

Cc1ccc(/C=C2\Sc3ccccc3C2=O)s1
EC50 [4]: 4.87 µM (active)
IC50 [5]: > 49.7 µM (inactive)
AC50 [6]: 11.8 µM (active)
IC50 [7]: > 66.2 µM (inactive)
IC50 [8]: 23.1 µM (inactive)
IC50 [9]: 22.5 µM (inactive)

Cc1ccc(NC(=O)C2CC(=O)Nc3nc4ccccc4n32)c(C)c1 (centres undefined)
EC50 [10]: 34.5 µM (active)

Cc1ccc(Sc2ccc(NC(=O)CCl)cc2)c(C)c1
EC50 [4]: 0.718 µM (active)
AC50 [6]: 2.5 µM (active)
CC50 [11]: 9.81 µM (active)
EC50 [12]: 9.67 µM (active)

N#Cc1ccc(-n2c(-c3ccccc3)nnc2-c2ccccc2)cc1C#N
EC50 [4]: 3.36 µM (active)
AC50 [6]: 3.83 µM (active)
CC50 [11]: > 40 µM (active)

NC(=S)n1[nH]c(-c2ccc([N+](=O)[O-])cc2)c(/N=N/c2cccc([N+](=O)[O-])c2)c1=O
IC50 [13]: > 50 µM (inactive)
EC50 [14]: 11.6 µM (active)
EC50 [15]: > 150 µM (inactive)
IC50 [16]: 2.66 µM (active)
IC50 [17]: 4 µM (active)
IC50 [18]: 42.5 µM (active)
AC50 [19]: 15.5 µM (active)

Reference: ChEMBL document CHEMBL1201862, “PubChem BioAssay data set” (2004)
